Data from ChEMBL document CHEMBL5625245, “Novel ProTide prodrugs of 5-fluoro-2'-deoxyuridine for the treatment of liver cancer” (Eur J Med Chem, 2023).
Calls of active or inactive are those of the source. The calls are words filed in the database; no cut-off is given here.

What was measured:
[1] = tested on: Bel-7402; experiment: Antiproliferative activity against human Bel-7402 cells assessed as reduction in cell viability at 20 uM measured after 48 hrs by MTT assay relative to control; type: functional
[2] = tested on: HepG2; experiment: Antiproliferative activity against human HepG2 cells assessed as reduction in cell viability at 20 uM measured after 48 hrs by MTT assay relative to control; type: functional
[3] = Antiproliferative activity against human NCM460 cells assessed as reduction in cell viability measured after 48 to 72 hrs by MTT assay; type: toxicity, cell-based
[4] = Antiproliferative activity against human L02 cells assessed as reduction in cell viability measured after 48 to 72 hrs by MTT assay; type: toxicity, cell-based
[5] = tested on: Bel-7402; experiment: Antiproliferative activity against human Bel-7402 cells assessed as reduction in cell viability measured after 48 to 72 hrs by MTT assay; type: functional, cell-based
[6] = tested on: HepG2; experiment: Antiproliferative activity against human HepG2 cells assessed as reduction in cell viability measured after 48 to 72 hrs by MTT assay; type: functional, cell-based
[7] = tested on: HepG2; experiment: Antitumor activity against human HepG2 cells xenografted in mouse model assessed as tumor growth inhibition at 150 mg/kg/day for 7 days relative to control; type: functional; details: HepG2, 168 h, time 7 day, read-out: TGI
[8] = Toxicity in orthotopic mouse assessed as effect on spleen at 60 mg/kg, iv administered twice daily for 18 days by H and E staining based analysis; type: organism-based; details: in vivo, 432 h, time 18 day
[9] = Toxicity in orthotopic mouse assessed as effect on drug tolerance at 60 mg/kg, iv administered twice daily for 18 days; type: organism-based; details: in vivo, 432 h, time 18 day
[10] = Toxicity in orthotopic mouse assessed as change in liver weight at 60 mg/kg, iv administered twice daily for 18 days; type: organism-based; details: in vivo, 432 h, time 18 day
[11] = Toxicity in orthotopic mouse assessed as effect on heart at 60 mg/kg, iv administered twice daily for 18 days by H and E staining based analysis; type: organism-based; details: in vivo, 432 h, time 18 day
[12] = tested on: HepG2; experiment: Antiproliferative activity against human HepG2 cells assessed as reduction in cell viability at 20 uM measured after 48 to 72 hrs in presence of 5-Fluorouracil by MTT assay; type: functional, cell-based; details: time 48-72 hrs
[13] = tested on: HepG2; experiment: Antitumor activity against human HepG2 cells xenografted in orthotopic mouse model assessed as average number of tumor at 60 mg/kg, iv administered twice daily for 18 days in presence of 5-Fluorouracil (reference value: 49+/3.6 mM); type: functional; details: time 18 day
[14] = tested on: HepG2; experiment: Antitumor activity against human HepG2 cells xenografted in mouse model assessed as tumor growth inhibition at 100 mg/kg/day for 7 days relative to control; type: functional; details: HepG2, 168 h, time 7 day, read-out: TGI
[15] = tested on: Bel-7402; experiment: Antiproliferative activity against human Bel-7402 cells assessed as reduction in cell viability at 20 uM measured after 48 to 72 hrs in presence of 5-Fluorouracil by MTT assay; type: functional, cell-based; details: time 48-72 hrs
[16] = Toxicity in orthotopic mouse assessed as effect on lung at 60 mg/kg, iv administered twice daily for 18 days by H and E staining based analysis; type: organism-based; details: in vivo, 432 h, time 18 day
[17] = Toxicity in orthotopic mouse assessed as effect on kidney at 60 mg/kg, iv administered twice daily for 18 days by H and E staining based analysis; type: organism-based; details: in vivo, 432 h, time 18 day
[18] = Toxicity in orthotopic mouse assessed as effect on liver at 60 mg/kg, iv administered twice daily for 18 days by H and E staining based analysis; type: organism-based; details: in vivo, 432 h, time 18 day
[19] = tested on: HepG2; experiment: Antitumor activity against human HepG2 cells xenografted in orthotopic mouse model assessed as tumor growth inhibition at 60 mg/kg, iv administered twice daily for 18 days in presence of 5-Fluorouracil relative to control; type: functional; details: HepG2, 432 h, time 18 day, read-out: TGI
[20] = Toxicity in orthotopic mouse assessed as effect on body weight at 60 mg/kg, iv administered twice daily for 18 days; type: organism-based; details: in vivo, 432 h, time 18 day
[21] = tested on: Bel-7402; experiment: Antiproliferative activity against human Bel-7402 cells assessed as reduction in cell viability at 20 uM measured after 48 hrs by MTT assay; type: functional, cell-based

| Compound | Activity [1] | Activity [2] | IC50 [3] | IC50 [4] | IC50 [5] | IC50 [6] | other results |
| --- | --- | --- | --- | --- | --- | --- | --- |
| CC(C)C[C@H](NC(=O)OC(C)(C)C)C(=O)NCC(=O)O[C@H]1C[C@H](n2cc(F)c(=O)[nH]c2=O)O[C@@H]1CO[P@@](=O)(N[C@@H](C)C(=O)OC(C)C)Oc1ccccc1 | 50% | 50% | – | – | – | – | – |
| C[C@H](N[P@](=O)(OC[C@H]1O[C@@H](n2cc(F)c(=O)[nH]c2=O)C[C@@H]1O)Oc1cccc2ccccc12)C(=O)OCc1ccccc1 | <10% | <10% | > 100 µM | > 100 µM | > 100 µM | > 100 µM | – |
| CC(C)OC(=O)[C@H](C)N[P@](=O)(OC[C@H]1O[C@@H](n2cc(F)c(=O)[nH]c2=O)C[C@@H]1O)Oc1ccccc1 | – | – | > 100 µM | > 100 µM | 18.2 µM | 36.2 µM | inhibition in vivo at 150 mg/kg/day [7]: 68%; Activity [8]: Non-Toxic; Activity [9]: Non-Toxic; Activity [10]: Toxic; Activity [11]: Non-Toxic; Activity [12]: Active; tumour count [13]: 21; inhibition in vivo at 100 mg/kg/day [14]: 52%; Activity [15]: Active; Activity [16]: Non-Toxic; Activity [17]: Non-Toxic; Activity [18]: Non-Toxic; inhibition in vivo at 60 mg/kg [19]: 57.1%; Activity [20]: Non-Toxic |
| CC(C)OC(=O)[C@H](C)N[P@](=O)(OC[C@H]1O[C@@H](n2cc(F)c(=O)[nH]c2=O)C[C@@H]1OC(=O)[C@@H](N)CC(=O)O)Oc1ccccc1 | – | – | – | – | – | – | Activity [21]: Active |
| CC(C)OC(=O)[C@H](C)N[P@](=O)(OC[C@H]1O[C@@H](n2cc(F)c(=O)[nH]c2=O)C[C@@H]1OC(=O)[C@H](Cc1ccccc1)NC(=O)OC(C)(C)C)Oc1ccccc1 | >60% | – | > 100 µM | > 100 µM | 7.18 µM | 28.7 µM | – |
| CC(C)C[C@H](N)C(=O)O[C@H]1C[C@H](n2cc(F)c(=O)[nH]c2=O)O[C@@H]1CO[P@@](=O)(N[C@@H](C)C(=O)OC(C)C)Oc1ccccc1 | – | – | – | – | – | – | Activity [21]: Active |
| CC(C)OC(=O)[C@H](C)N[P@](=O)(OC[C@H]1O[C@@H](n2cc(F)c(=O)[nH]c2=O)C[C@@H]1OC(=O)[C@H](C)NC(=O)CN)Oc1ccccc1 | 50% | 50% | – | – | – | – | – |
| CC(C)OC(=O)[C@H](C)N[P@](=O)(OC[C@H]1O[C@@H](n2cc(F)c(=O)[nH]c2=O)C[C@@H]1OC(=O)OC(C)(C)C)Oc1ccccc1 | 50% | 50% | – | – | – | – | – |
| CC(C)OC(=O)[C@H](C)N[P@](=O)(OC[C@H]1O[C@@H](n2cc(F)c(=O)[nH]c2=O)C[C@@H]1OC(=O)[C@H](C)N)Oc1ccccc1 | – | – | – | – | – | – | Activity [21]: Active |
| CCC(C)[C@H](NC(=O)OC(C)(C)C)C(=O)O[C@H]1C[C@H](n2cc(F)c(=O)[nH]c2=O)O[C@@H]1CO[P@@](=O)(N[C@@H](C)C(=O)OC(C)C)Oc1ccccc1 (some centres undefined) | >60% | – | > 100 µM | > 100 µM | 8.99 µM | 48.7 µM | – |
| CC(C)OC(=O)[C@H](C)N[P@](=O)(OC[C@H]1O[C@@H](n2cc(F)c(=O)[nH]c2=O)C[C@@H]1OC(=O)[C@H](C)NC(=O)CNC(=O)OC(C)(C)C)Oc1ccccc1 | 50% | 50% | – | – | – | – | – |
| CC(C)OC(=O)[C@H](C)N[P@](=O)(OC[C@H]1O[C@@H](n2cc(F)c(=O)[nH]c2=O)C[C@@H]1OC(=O)[C@H](Cc1ccccc1)NC(=O)[C@@H](NC(=O)OC(C)(C)C)C(C)C)Oc1ccccc1 | – | – | > 100 µM | > 100 µM | 13.2 µM | 34.1 µM | – |
| CCC(C)[C@H](N)C(=O)O[C@H]1C[C@H](n2cc(F)c(=O)[nH]c2=O)O[C@@H]1CO[P@@](=O)(N[C@@H](C)C(=O)OC(C)C)Oc1ccccc1 (some centres undefined) | – | >50% | > 100 µM | > 100 µM | 9.11 µM | 15.2 µM | Activity [21]: Active |
| CC(C)C[C@H](N)C(=O)NCC(=O)O[C@H]1C[C@H](n2cc(F)c(=O)[nH]c2=O)O[C@@H]1CO[P@@](=O)(N[C@@H](C)C(=O)OC(C)C)Oc1ccccc1 | 50% | 50% | – | – | – | – | – |
| CC(C)OC(=O)[C@H](C)N[P@](=O)(OC[C@H]1O[C@@H](n2cc(F)c(=O)[nH]c2=O)C[C@@H]1OC(=O)CN)Oc1ccccc1 | – | – | – | – | – | – | Activity [21]: Active |
| CC(C)OC(=O)[C@H](C)N[P@](=O)(OC[C@H]1O[C@@H](n2cc(F)c(=O)[nH]c2=O)C[C@@H]1OC(=O)CNC(=O)OC(C)(C)C)Oc1ccccc1 | >60% | >50% | > 100 µM | > 100 µM | 10.1 µM | 17.5 µM | – |
| CC(C)OC(=O)[C@H](C)N[P@](=O)(OC[C@H]1O[C@@H](n2cc(F)c(=O)[nH]c2=O)C[C@@H]1OC(=O)[C@H](CC(=O)OC(C)(C)C)NC(=O)OC(C)(C)C)Oc1ccccc1 | >60% | – | > 100 µM | > 100 µM | 3.77 µM | 19.9 µM | – |
| CC(C)C[C@H](NC(=O)CNC(=O)OC(C)(C)C)C(=O)O[C@H]1C[C@H](n2cc(F)c(=O)[nH]c2=O)O[C@@H]1CO[P@@](=O)(N[C@@H](C)C(=O)OC(C)C)Oc1ccccc1 | – | >50% | – | – | – | – | – |
| Cc1ccccc1CO[P@](=O)(N[C@@H](C)C(=O)OC(C)C)OC[C@H]1O[C@@H](n2cc(F)c(=O)[nH]c2=O)C[C@@H]1O | – | – | > 100 µM | > 100 µM | 0.73 µM | 0.59 µM | – |
| CC(C)OC(=O)[C@H](C)N[P@](=O)(OC[C@H]1O[C@@H](n2cc(F)c(=O)[nH]c2=O)C[C@@H]1OC(=O)[C@@H](N)Cc1ccccc1)Oc1ccccc1 | – | – | – | – | – | – | Activity [21]: Active |
| CC(C)C[C@H](NC(=O)OC(C)(C)C)C(=O)O[C@H]1C[C@H](n2cc(F)c(=O)[nH]c2=O)O[C@@H]1CO[P@@](=O)(N[C@@H](C)C(=O)OC(C)C)Oc1ccccc1 | >60% | – | > 100 µM | > 100 µM | 9.68 µM | 21.2 µM | – |
| CC(C)OC(=O)[C@H](C)N[P@](=O)(OC[C@H]1O[C@@H](n2cc(F)c(=O)[nH]c2=O)C[C@@H]1OC(=O)[C@H](Cc1ccccc1)NC(=O)[C@@H](N)C(C)C)Oc1ccccc1 | 50% | 50% | – | – | – | – | – |
| CC(C)C[C@H](NC(=O)CN)C(=O)O[C@H]1C[C@H](n2cc(F)c(=O)[nH]c2=O)O[C@@H]1CO[P@@](=O)(N[C@@H](C)C(=O)OC(C)C)Oc1ccccc1 | 50% | 50% | – | – | – | – | – |
